This is an account of results in patent publication US20100113513A1, “QUINOLINE DERIVATIVES AS FUNGICIDES” (SYNGENTA CROP PROTECTION, INC., priority 2007, published 2010).

The subject of the experiment is Erysiphe graminis f.sp. tritici. Description: Erysiphe graminis f.sp. tritici (wheat powdery mildew) wheat leaf segment test, preventive. Format: in vivo. The note with it: Blumeria graminis, foliar, 96 h, wheat leaf segments, assessed four days after inoculation, read-out: control of fungal infection, Erysiphe graminis f.sp. tritici.

Molecules are shown by their SMILES. Where only a bound is given, the exact number is not on record here.

Take `CCOC(Oc1ccc2ncc(Br)cc2c1)C(=O)NC(C)(C)C` (stereo not drawn) [12 (156), 2-(3-Bromo-quinolin-6-yloxy)-N-tert-butyl-2-ethoxy-acetamide]: the pest or weed control at 200 ppm is not below 60%.

As to `CCC(Oc1ccc2ncc(Br)cc2c1)C(=O)NC(C)(C)C` (stereo not drawn) [12 (154), 2-(3-bromo-quinolin-6-yloxy)-N-tert-butyl-butyramide], the pest or weed control at 200 ppm is not below 60%.

Consider `CCC(Oc1cc(C)c2ncc(Br)cc2c1)C(=O)NC(C)(C)COC` (stereo not drawn) [47 (90), 2-(3-Bromo-8-methyl-quinolin-6-yloxy)-N-(2-methoxy-1,1-dimethyl-ethyl)-butyramide], for which the pest or weed control at 200 ppm is not below 60%.

In the case of `CCOC(Oc1ccc2ncc(Br)cc2c1)C(=O)NC(C)(C)COC` (stereo not drawn) [47 (156), 2-(3-Bromo-quinolin-6-yloxy)-2-ethoxy-N-(2-methoxy-1,1-dimethyl-ethyl)-acetamide], the pest or weed control at 200 ppm is not below 60%.

Turning to `COCC(C)(C)NC(=O)C(OC)Oc1ccc2ncc(Br)cc2c1` (stereo not drawn) [47 (155), 2-(3-Bromo-quinolin-6-yloxy)-2-methoxy-N-(2-methoxy-1,1-dimethyl-ethyl)-acetamide], the pest or weed control at 200 ppm was not below 60%.

With `CCC(Oc1ccc2ncc(Br)cc2c1)C(=O)NC(C)(C#N)COC` (stereo not drawn) [52 (154), 2-(3-Bromo-quinolin-6-yloxy)-N-(1-cyano-2-methoxy-1-methyl-ethyl)-butyramide], the pest or weed control at 200 ppm is not below 60%.

With `COC(Oc1ccc2ncc(Br)cc2c1)C(=O)NC(C)(C)C` (stereo not drawn) [12 (155), 2-(3-bromo-quinolin-6-yloxy)-N-tert-butyl-2-methoxy-acetamide], the pest or weed control at 200 ppm was not below 60%.

As to `COCC(C)(C#N)NC(=O)C(OC)Oc1ccc2ncc(Br)cc2c1` (stereo not drawn) [52 (155), 2-(3-Bromo-quinolin-6-yloxy)-N-(1-cyano-2-methoxy-1-methyl-ethyl)-2-methoxy-acetamide], the pest or weed control at 200 ppm is not below 60%.

Take `COC(Oc1cc(Br)c2ncc(Br)cc2c1)C(=O)NC(C)(C)C` (stereo not drawn) [12 (99), N-tert-Butyl-2-(3,8-dibromo-quinolin-6-yloxy)-2-methoxy-acetamide]: the pest or weed control at 200 ppm is not below 60%.
